We go through 24 compounds from patent US20260078099A1, “COMPOUND, PREPARATION METHOD THEREOF, AND LIPID NANOPARTICLE AND PHARMACEUTICAL COMPOSITION” (priority 2023, published 2026).

A short description of data set [1]: LNP size and PDI by dynamic light scattering. It counts as physicochemical. Conditions: mRNA LNP, cationic lipid/DSPC/cholesterol/PEG-lipid 50:10:38.5:1.5.
Data set [2] can be described thus: LNP encapsulation efficiency (Quant-it Ribogreen). It counts as physicochemical. Conditions: mRNA LNP, cationic lipid/DSPC/cholesterol/PEG-lipid 50:10:38.5:1.5.
Data set [3] is described as follows: LNP zeta potential. It counts as physicochemical. To be noted: mRNA LNP.
Data set [4] relates to mice. In words: Bioluminescent study, intramuscular injection of F-luc mRNA LNPs. It counts as in vivo. To be noted: F-luc luminescence flux normalized to MC3; 0.25 mg/kg intramuscular, mice n=3, 6-hour time point. The essentials: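 Mice (n=3) received LNP-formulated F-luc mRNA at 0.25 mg/kg intramuscularly. Bioluminescence was read 6 h after dosing. Test LNPs were made with an MC3 formulation, and PBS served as control in some groups.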

On to `CCCCCCCCC(C(=O)NCCCCCCCCCC(=O)OC(CCCCCC)CCCCCC)N(CCCN1CCCC1)C(=O)CCCCCCCCCC(=O)OC(CCCCCC)CCCCCC` (stereo not drawn) [Compound A1], for which, in data set [1], the PDI is 0.135 and the “Size (nm)” value amounted to 82.96 nm. Besides, the “Encapsulation efficiency (%)” value in data set [2] is 67.41%. Moreover, in data set [3], the “Zeta potential (mV)” value is on record as −12.25 mV. For the same compound, the “Relative Total flux” value in data set [4] is “B (B: ≥1 and <2)”.
Regarding `CCCCCCCC(C(=O)NCCCCCCCCCC(=O)OC(CCCCCC)CCCCCC)N(CCN(CCO)C1CCCCC1)C(=O)CCCCCCCCCC(=O)OC(CCCCCC)CCCCCC` (stereo not drawn) [Compound B15], in data set [1], the PDI was determined as 0.182 and the “Size (nm)” value amounted to 87.64 nm. The “Encapsulation efficiency (%)” value in data set [2] is given as 95.93%. The “Zeta potential (mV)” value in data set [3] is listed as 2.43 mV. Further, the “Relative Total flux” value in data set [4] was “A (A: ≥2)”.
In the same order, the values of `CCCCCCCC(C(=O)NCCCCCCCCCC(=O)OC(CCCCCC)CCCCCC)N(CCNCCO)C(=O)CCCCCCCCCC(=O)OC(CCCCCC)CCCCCC` (stereo not drawn) [Compound B6] are 0.183, 61.81 nm, 75.47%, −0.39 mV and “A (A: ≥2)”.
For `CCCCC/C=C\C/C=C\CCCCCCCC(=O)N(CCCN1CCCC1)CC(=O)NCCCCCCCCCCCCCC` [Compound A21], in data set [1], the PDI is listed as 0.071 and the “Size (nm)” value is 95.73 nm. The “Encapsulation efficiency (%)” value in data set [2] was determined as 54.53%. The “Zeta potential (mV)” value in data set [3] is 11.03 mV. Also, the “Relative Total flux” value in data set [4] is “C (C: ≥0.1 and <1)”.
As for `CCCCCCCC(C(=O)NCCCCCCCCCC(=O)OC(CCCCCC)CCCCCC)N(CCCNC(=S)N(C)C)C(=O)CCCCCCCCCC(=O)OC(CCCCCC)CCCCCC` (stereo not drawn) [Compound B21], in data set [1], the PDI was determined as 0.388 and the “Size (nm)” value is 84.45 nm. The “Encapsulation efficiency (%)” value in data set [2] is reported as 93.97%. The “Zeta potential (mV)” value in data set [3] was determined as 6.22 mV. Besides, the “Relative Total flux” value in data set [4] was “B (B: ≥1 and <2)”.
Regarding `CCCCCCCCCCOCCCCCCCC(=O)N(CCCN(C)C)C(CCCCCCCC)C(=O)NCCCCCCCC` (stereo not drawn) [Compound A42], in data set [1], the PDI was determined as 0.19 and the “Size (nm)” value is 90.78 nm. The “Encapsulation efficiency (%)” value in data set [2] turned out to be 95.23%. In addition, the “Zeta potential (mV)” value in data set [3] is reported as −1.88 mV. The “Relative Total flux” value in data set [4] is “A (A: ≥2)”.
Turning to `CCCCCCC(CCCCCC)OC(=O)CCCCCCCCCNC(=O)C(CCCCCCCCCC(=O)OC(CCCCCC)CCCCCC)N(CCCN1CCN(C)CC1)C(=O)CCCN1CCN(C)CC1` (stereo not drawn) [Compound E9], in data set [1], the PDI amounted to 0.593 and the “Size (nm)” value worked out at 91.81 nm. Besides, the “Encapsulation efficiency (%)” value in data set [2] is listed as 82.13%. Further, the “Zeta potential (mV)” value in data set [3] is given as −15.91 mV. Also, the “Relative Total flux” value in data set [4] was “C (C: ≥0.1 and <1)”.
Turning to `CCCCCCCC(C(=O)NCCCCCCCCCC(=O)OC(CCCCCC)CCCCCC)N(COC(=O)CCN(C)C)C(=O)CCCCCCCCCC(=O)OC(CCCCCC)CCCCCC` (stereo not drawn) [Compound B23], in data set [1], the PDI came to 0.214 and the “Size (nm)” value is 68.16 nm. Moreover, in data set [2], the “Encapsulation efficiency (%)” value came out at 93.95%. For the same compound, in data set [3], the “Zeta potential (mV)” value was 12.50 mV. In data set [4], the “Relative Total flux” value is “B (B: ≥1 and <2)”.
In the case of `CCCCCCCCC(C(=O)NCCCCCCCCCC(=O)OCC12CC3CC(CC(C3)C1)C2)N(CCCN1CCCC1)C(=O)CCCCCCCCCC(=O)OC(CCCCCC)CCCCCC` (stereo not drawn) [Compound A8], in data set [1], the PDI stood at 0.16 and the “Size (nm)” value came to 66.98 nm. The “Encapsulation efficiency (%)” value in data set [2] stood at 92.88%. For the same compound, in data set [3], the “Zeta potential (mV)” value is on record as −19.03 mV. The “Relative Total flux” value in data set [4] was “D (D: <0.1.)”.
In the case of `CCCCCCC(CCCCCC)OC(=O)CCCCCCCCCNC(=O)CN(CCN(C)CCN(CC(=O)NCCCCCCCCCC(=O)OC(CCCCCC)CCCCCC)C(=O)CCCCCCCCCC(=O)OC(CCCCCC)CCCCCC)C(=O)CCCCCCCCCC(=O)OC(CCCCCC)CCCCCC` [Compound D5], in data set [1], the PDI worked out at 0.183 and the “Size (nm)” value is reported as 78.42 nm. Further, the “Encapsulation efficiency (%)” value in data set [2] was 96.72%. For the same compound, the “Zeta potential (mV)” value in data set [3] is listed as −17.80 mV. In data set [4], the “Relative Total flux” value is listed as “A (A: ≥2)”.
Take `CCCCCCCCNC(=O)C(CCCCCCCC)N(CCCN(CCO)CCO)C(=O)CCCCCCC(=O)OC(CCCCCCCC)CCCCCCCC` (stereo not drawn) [Compound B26]: in data set [1], the PDI is given as 0.22 and the “Size (nm)” value turned out to be 105.63 nm. The “Encapsulation efficiency (%)” value in data set [2] stood at 92.99%. Moreover, the “Zeta potential (mV)” value in data set [3] is −1.65 mV. In addition, the “Relative Total flux” value in data set [4] is “D (D: <0.1.)”.
Consider `CCCCCCCC(C(=O)NCCCCCCCCCC(=O)OC(CCCCCC)CCCCCC)N(CCCN1CCCC1)C(=O)CCCCCCCCCC(=O)OC(CCCCCC)CCCCCC` (stereo not drawn) [Compound A2], for which, in data set [1], the PDI turned out to be 0.153 and the “Size (nm)” value was determined as 78.3 nm. In data set [2], the “Encapsulation efficiency (%)” value is reported as 50.77%. In data set [3], the “Zeta potential (mV)” value is reported as −2.69 mV. For the same compound, the “Relative Total flux” value in data set [4] is “C (C: ≥0.1 and <1)”.
Consider `CCCCCC/C=C\CCCCCCCC(C(=O)NCCCCCC)N(CCCN(C)C)C(=O)CCCCCCC(=O)OC(CCCCCCCC)CCCCCCCC` (stereo not drawn) [Compound A40], for which, in data set [1], the PDI worked out at 0.17 and the “Size (nm)” value was 75.94 nm. Besides, the “Encapsulation efficiency (%)” value in data set [2] amounted to 93.54%. The “Zeta potential (mV)” value in data set [3] is listed as −0.97 mV. The “Relative Total flux” value in data set [4] was “C (C: ≥0.1 and <1)”.
With `CCCCC/C=C\C/C=C\CCCCCCCCC(CCCCCCCC/C=C\C/C=C\CCCCC)OC(=O)CCCN(C)C` [DLin-MC3, reference compound], in data set [1], the PDI is recorded as 0.036 and the “Size (nm)” value was found to be 87.75 nm. In data set [2], the “Encapsulation efficiency (%)” value came to 95.24%. For the same compound, the “Zeta potential (mV)” value in data set [3] is −3.25 mV. The “Relative Total flux” value in data set [4] is “B (B: ≥1 and <2)”.
Regarding `CCCCCCCCC(C(=O)NCCCCCCCCCC(=O)OCC1CC=CCC1)N(CCCN1CCCC1)C(=O)CCCCCCCCCC(=O)OC(CCCCCC)CCCCCC` (stereo not drawn) [Compound A10], in data set [1], the PDI was 0.415 and the “Size (nm)” value is reported as 61.16 nm. Also, in data set [2], the “Encapsulation efficiency (%)” value is recorded as 54.08%. Also, the “Zeta potential (mV)” value in data set [3] is on record as −3.45 mV. Moreover, in data set [4], the “Relative Total flux” value is on record as “A (A: ≥2)”.
As to `CCCCCCCC(C(=O)NCCCCCCCCCC(=O)OC(CCCCCC)CCCCCC)N(CCCN(C)C)C(=O)CCCCCCCCCC(=O)OC(CCCCCC)CCCCCC` (stereo not drawn) [Compound A12], in data set [1], the PDI is reported as 0.207 and the “Size (nm)” value worked out at 63.48 nm. For the same compound, in data set [2], the “Encapsulation efficiency (%)” value was 24.84%. For the same compound, the “Zeta potential (mV)” value in data set [3] is reported as −9.55 mV. Also, the “Relative Total flux” value in data set [4] is “C (C: ≥0.1 and <1)”.
Regarding `CCCCCCCCC(C(=O)NCCCCCCCCCC(=O)OCC1CC=CCC1)N(CCCN(C)C)C(=O)CCCCCCCCCC(=O)OC(CCCCCC)CCCCCC` (stereo not drawn) [Compound A20], in data set [1], the PDI came out at 0.113 and the “Size (nm)” value is recorded as 93.07 nm. In addition, in data set [2], the “Encapsulation efficiency (%)” value stood at 60.65%. Moreover, the “Zeta potential (mV)” value in data set [3] is listed as 17.70 mV. Besides, the “Relative Total flux” value in data set [4] is given as “D (D: <0.1.)”.
For `CCCCCCCC(C(=O)NCCCCCCCCCC(=O)OC(CCCCCC)CCCCCC)N(CCCN1CCCC1)C(=O)CCCCCCCCCC(=O)OCC1CC=CCC1` (stereo not drawn) [Compound A9] the same measures were 0.191, 64.58 nm, 93.54%, −18.67 mV and “D (D: <0.1.)”.
In the same order, the values of `CCCCC/C=C\C/C=C\CCCCCCCCNC(=O)C(CCCCCCCC)N(CCCCCCCC/C=C\C/C=C\CCCCC)C(=O)CCCN1CCN(C)CC1` (stereo not drawn) [Compound C5] are 0.198, 64.58 nm, 91.26%, −14.75 mV and “D (D: <0.1.)”.
For `CCCCCCCCNC(=O)C(CCCCCCCC)N(CCCCN(C)C)C(=O)CCCCCCC(=O)OC(CCCCCCCC)CCCCCCCC` (stereo not drawn) [Compound A35] the same measures were 0.19, 74.92 nm, 97.34%, −7.81 mV and “A (A: ≥2)”.
Turning to `CCCCCCCC(C(=O)NCCCCCCCCCC(=O)OC(CCCCCC)CCCCCC)N(CCCN1CCCC1)C(=O)CCCCCCCCCC(=O)OCC12CC3CC(CC(C3)C1)C2` (stereo not drawn) [Compound A7], in data set [1], the PDI amounted to 0.274 and the “Size (nm)” value came to 62.53 nm. For the same compound, the “Encapsulation efficiency (%)” value in data set [2] stood at 96.10%. For the same compound, the “Zeta potential (mV)” value in data set [3] worked out at 4.99 mV. Moreover, in data set [4], the “Relative Total flux” value is “C (C: ≥0.1 and <1)”.
With `CCCCCCCCC(C(=O)NCCCCCCCCCC(=O)OCCCCCC)N(CCCN1CCCC1)C(=O)CCCCCCCCCC(=O)OC(CCCCCC)CCCCCC` (stereo not drawn) [Compound A5], in data set [1], the PDI amounted to 0.13 and the “Size (nm)” value was determined as 60.62 nm. Further, the “Encapsulation efficiency (%)” value in data set [2] is on record as 92.48%. Besides, the “Zeta potential (mV)” value in data set [3] is recorded as −17.73 mV. Also, the “Relative Total flux” value in data set [4] is reported as “D (D: <0.1.)”.
In the same order, the values of `CCCCCCCC(C(=O)NCCCCCCCCCC(=O)OC(CCCCCC)CCCCCC)N(CCCN(CCO)C1CCC1)C(=O)CCCCCCCCCC(=O)OC(CCCCCC)CCCCCC` (stereo not drawn) [Compound B10] are 0.166, 66.9 nm, 46.91%, 2.18 mV and “A (A: ≥2)”.
For `CCCCCCCCC(CCCCCCCC)OC(=O)CCCCCC(=O)N(CCCN(C)C)C(CCCCCCCC)C(=O)NCCCCCC(=O)OCCC12CC3CC(CC(C3)C1)C2` (stereo not drawn) [Compound A48] the same measures were 0.08, 64.27 nm, 94.62%, 0.65 mV and “A (A: ≥2)”.
